Structures can show the parent of a compound that is named as a salt. Where only a bound is given, the exact number is not on record here.

Consider 26 molecules from patent US8637537B2, “Serine/threonine kinase inhibitors” (Genentech, Inc., priority 2011, dated 2014).

The assay addresses T1, human recombinant GST-PAK1-KD protein (Homo sapiens, UniProt Q13153).
T1 construct: residues #249-545 of human PAK1, UniProtKP/Swiss Q13153; His6 (N); made in house; host or cells: Sf9 insect cells, pAcGP67 baculovirus expression vector
Put plainly: GST-PAK1-KD (kinase domain) biochemical assay, microfluidic mobility shift. To be noted: Table I, PAK1 Ki class; read-out: Ki.

T1 sequence (Q13153 249-545): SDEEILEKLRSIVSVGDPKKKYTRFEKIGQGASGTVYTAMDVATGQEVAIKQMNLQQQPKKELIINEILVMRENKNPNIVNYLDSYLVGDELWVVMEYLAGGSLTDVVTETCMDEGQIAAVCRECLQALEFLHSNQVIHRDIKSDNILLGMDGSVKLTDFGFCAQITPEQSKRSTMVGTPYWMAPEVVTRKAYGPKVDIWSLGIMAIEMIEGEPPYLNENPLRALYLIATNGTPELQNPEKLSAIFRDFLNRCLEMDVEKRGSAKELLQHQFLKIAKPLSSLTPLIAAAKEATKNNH

Consider `Cc1cc(Nc2cc(C3CC3)[nH]n2)nc(NCc2cc(F)cc3[nH]ccc23)n1` [I-89, N^4-(5-Cyclopropyl-1H-pyrazol-3-yl)-N^2-((6-fluoro-1H-indol-4-yl)methyl)-6-methylpyrimidine-2,4-diamine Formate], for which the Ki was 250 to 1000 nM.

On to `Fc1cc(CNc2ncc(F)c(Nc3cc(C4CCC4)[nH]n3)n2)c2cc[nH]c2c1` [I-90, N^4-(5-Cyclobutyl-1H-pyrazol-3-yl)-5-fluoro-N^2-((6-fluoro-1H-indol-4-yl)methyl)pyrimidine-2,4-diamine formate], for which the Ki lay in the range of 250 to 1000 nM.

On to `Fc1cc(CNc2ncc(F)c(Nc3cc(C4CC4)[nH]n3)n2)c2cc[nH]c2c1` [I-91, N^4-(5-Cyclopropyl-1H-pyrazol-3-yl)-5-fluoro-N^2-((6-fluoro-1H-indol-4-yl)methyl)pyrimidine-2,4-diamine diformate], for which the Ki lay in the range of 250 to 1000 nM.

On to `Cc1c[nH]c2cccc(CNc3nccc(Nc4cc(C5CC5)[nH]n4)n3)c12` [I-92, N^4-(5-Cyclopropyl-1H-pyrazol-3-yl)-N^2-((3-methyl-1H-indol-4-yl)methyl)pyrimidine-2,4-diamine], for which the Ki is below 50 nM.

Turning to `Clc1cc2[nH]ccc2cc1CNc1nccc(Nc2cc(C3CC3)[nH]n2)n1` [I-93, N^2-((6-Chloro-1H-indol-5-yl)methyl)-N^4 (5-cyclopropyl-1H-pyrazol-3-yl)pyrimidine-2,4-diamine], the Ki is 50 to 250 nM.

Take `Clc1cc2[nH]cnc2cc1CNc1nccc(Nc2cc(C3CC3)[nH]n2)n1` [I-94, N^2-((6-chloro-1H-benzo[d]imidazol-5-yl)methyl)-N^4-(5-cyclopropyl-1H-pyrazol-3-yl)-pyrimidine-2,4-diamine]: the Ki is 50 to 250 nM.

Take `Cc1c(CN(C)c2nccc(Nc3cc(C4CC4)[nH]n3)n2)ccc2[nH]cnc12` [I-95, N^4-(5-Cyclopropyl-1H-pyrazol-3-yl)-N^2-methyl-N^2-((4-methyl-1H-benzo[d]imidazol-5-yl)methyl)pyrimidine-2,4-diamine]: the inhibition constant Ki is below 50 nM.

For `Fc1cc(CNc2nccc(Nc3cc(C4CC4)[nH]n3)n2)cc2nc[nH]c12` [I-96, N^4-(5-cyclopropyl-1H-pyrazol-3-yl)-N^2-((7-fluoro-1H-benzo[d]imidazol-5-yl)methyl)pyrimidine-2,4-diamine], the Ki was 50 to 250 nM.

`Fc1cnc(NCc2cccc3[nH]cnc23)nc1Nc1cc(C2CC2)n[nH]1` [I-97, N^2-((3H-benzo[d]imidazol-4-yl)methyl)-N^4-(3-cyclopropyl-1H-pyrazol-5-yl)-5-fluoropyrimidine-2,4-diamine]: the inhibitory constant (Ki) is below 50 nM.

For `C[C@H](Nc1nccc(Nc2cc(C3CC3)[nH]n2)n1)c1cccc2[nH]ccc12` [I-98, N^4-(5-cyclopropyl-1H-pyrazol-3-yl)-N^2-[(1S)-1-(1H-indol-4-yl)ethyl]pyrimidine-2,4-diamine], the Ki is below 50 nM.

For the molecule `C[C@H](Nc1ncc(F)c(Nc2cc(C3CC3)[nH]n2)n1)c1cccc2[nH]ccc12` [I-99, N^4-(5-cyclopropyl-1H-pyrazol-3-yl)-5-fluoro-N^2-[(1S)-1-(1H-indol-4-yl)ethyl]pyrimidine-2,4-diamine], the Ki was in the range of 50 to 250 nM.

For the molecule `C[C@@H](Nc1ncc(F)c(Nc2cc(C3CC3)[nH]n2)n1)c1cccc2[nH]ccc12` [I-100, N^4-(5-cyclopropyl-1H-pyrazol-3-yl)-5-fluoro-N^2-[(1R)-1-(1H-indol-4-yl)ethyl]pyrimidine-2,4-diamine], the Ki is above 1000 nM.

As to `CC[C@H](Nc1ncc(F)c(Nc2cc(C3CC3)[nH]n2)n1)c1ccc2[nH]cnc2c1` [I-101, N^2-[(1S)-1-(1H-benzimidazol-5-yl)propyl]-N^4-(5-cyclopropyl-1H-pyrazol-3-yl)-5-fluoro-pyrimidine-2,4-diamine], the Ki fell in the range of 50 to 250 nM.

With `c1cc(Nc2cc(C3CC3)[nH]n2)nc(NCc2ccc3[nH]ncc3c2)n1` [I-102, N^4-(5-cyclopropyl-1H-pyrazol-3-yl)-N^2-(1H-indazol-5-ylmethyl)pyrimidine-2,4-diamine], the Ki was 250 to 1000 nM.

As to `c1cc(Nc2cc(C3CC3)[nH]n2)nc(NCc2ccc3cn[nH]c3c2)n1` [I-103, N^4-(5-cyclopropyl-1H-pyrazol-3-yl)-N^2-(1H-indazol-6-ylmethyl)pyrimidine-2,4-diamine], the Ki is above 1000 nM.

With `FC1(F)CC(c2cc(Nc3ccnc(NCc4cccc5[nH]ccc45)n3)n[nH]2)C1` [I-104, N^2-((1H-indol-4-yl)methyl)-N^4-(5-(3,3-difluorocyclobutyl)-1H-pyrazol-3-yl)pyrimidine-2,4-diamine], the Ki fell in the range of 50 to 250 nM.

As to `FC1(F)CC(c2cc(Nc3ccnc(NCc4ccc5[nH]cnc5c4Cl)n3)n[nH]2)C1` [I-105, N^2-((4-chloro-1H-benzo[d]imidazol-5-yl)methyl)-N^4-(5-(3,3-difluorocyclobutyl)-1H-pyrazol-3-yl)pyrimidine-2,4-diamine], the Ki is below 50 nM.

As to `Clc1c(CNc2nccc(Nc3cc(C4CCCC4)[nH]n3)n2)ccc2[nH]cnc12` [I-107, N^2-((4-chloro-1H-benzo[d]imidazol-5-yl)methyl)-N^4-(5-cyclopentyl-1H-pyrazol-3-yl)pyrimidine-2,4-diamine], the Ki was below 50 nM.

Take `Clc1c(CNc2nccc(Nc3cc(C4CCC4)[nH]n3)n2)ccc2[nH]cnc12` [I-108, N^2-((4-chloro-1H-benzo[d]imidazol-5-yl)methyl)-N^4-(5-cyclobutyl-1H-pyrazol-3-yl)pyrimidine-2,4-diamine]: the inhibition constant Ki was below 50 nM.

`C[C@H](Nc1ncc(Cl)c(Nc2cc(C3CC3)[nH]n2)n1)c1ccc2[nH]ccc2c1` [I-110, (S)—N^2-(1-(1H-indol-5-yl)ethyl)-5-chloro-N^4-(5-cyclopropyl-1H-pyrazol-3-yl)pyrimidine-2,4-diamine]: the Ki fell in the range of 250 to 1000 nM.

Take `C[C@H](Nc1nccc(Nc2cc(C3CC(F)(F)C3)[nH]n2)n1)c1ccc2[nH]ccc2c1` [I-111, (S)—N^2-(1-(1H-indol-5-yl)ethyl)-N^4-(5-(3,3-difluorocyclobutyl)-1H-pyrazol-3-yl)pyrimidine-2,4-diamine]: the Ki was below 50 nM.

`Cc1cc(Nc2ccnc(N[C@@H](C)c3ccc4[nH]ccc4c3)n2)n[nH]1` [I-112, (S)—N^2-(1-(1H-indol-5-yl)ethyl)-N^4-(5-methyl-1H-pyrazol-3-yl)pyrimidine-2,4-diamine]: the Ki was in the range of 250 to 1000 nM.

On to `C[C@H](Nc1nccc(Nc2cc(C3CCCC3)[nH]n2)n1)c1ccc2[nH]ccc2c1` [I-113, (S)—N^2-(1-(1H-indol-5-yl)ethyl)-N^4-(5-cyclopentyl-1H-pyrazol-3-yl)pyrimidine-2,4-diamine], for which the Ki was below 50 nM.

For the molecule `C[C@H](Nc1nccc(Nc2cc(C3CCOC3)[nH]n2)n1)c1ccc2[nH]ccc2c1` (stereo partly drawn) [I-115, N^2—((S)-1-(1H-indol-5-yl)ethyl)-N^4-(5-(tetrahydrofuran-3-yl)-1H-pyrazol-3-yl)pyrimidine-2,4-diamine], the Ki is below 50 nM.

Take `C[C@H](Nc1nccc(Nc2cc(C3CCCO3)[nH]n2)n1)c1ccc2[nH]ccc2c1` (stereo partly drawn) [I-116, N^2—((S)-1-(1H-indol-5-yl)ethyl)-N^4-(5-(tetrahydrofuran-2-yl)-1H-pyrazol-3-yl)pyrimidine-2,4-diamine]: the Ki was in the range of 250 to 1000 nM.

For the molecule `Fc1cnc(NCc2ccc3[nH]cnc3c2Cl)nc1Nc1cc(C2CC2)[nH]n1` [I-117, N^2-((4-chloro-1H-benzo[d]imidazol-5-yl)methyl)-N^4-(5-cyclopropyl-1H-pyrazol-3-yl)-5-fluoropyrimidine-2,4-diamine], the Ki was below 50 nM.

Usually Ki stands for the equilibrium dissociation constant of an inhibitor or competing ligand from its target.
